Experimental data as given in patent publication US12285399B2, “Composition comprising bornyl acetate or pharmaceutically acceptable salt thereof as active ingredient for prevention or treatment of stress-related disorder” (UNIVERSITY-INDUSTRY COOPERATION GROUP OF KYUNG HEE …, priority 2019, dated 2025).

Columns and labels:
Type in all cases: in vivo, C57BL/6NTac mice
[1] = system: animal model of stress depression induced by chronic restrained stress (CRS); assay: Forced swimming test (FST) in CRS-induced stress depression model; conditions: CRS+BA group, oral daily 1 hour before restraint, 24 hours after TST, last 4 minutes of 6-minute test; dose not stated
Experimental: In order to confirm the antidepressant efficacy of bornyl acetate on the animal model of stress depression, an animal model of depression induced by chronic restrained stress (CRS) was prepared. Specifically, the animal model, 8-week-old male C57BL/6NTac mice after birth (Narabiotechnology, Korea; weight 22-24 g) had been stabilized for 1 week. A 50 ml conical tube (SPL Life sciences, Pocheon, Korea) was punched to make a hole, thereby making a restraint frame. The mice were put in the frame and restrained for 2 hours every day for 14 days. After restraint, the mice were allowed to freely ingest water and food in the home cage. 24 hours after the tail suspension test, distilled water (23-24° C.) was filled to a height of about 14 cm in a circular water tank (diameter 15×height 25 cm), and the mice were dropped and forced to swim. […] Bornyl acetate (25, 50 and 100 mg/kg) of the present invention was dissolved in 0.1 M PBS, and the mixture was orally administered 1 hour before inducing restrained stress every day. Bornyl acetate was administered in a dose per individual of 100 μl.

corticosterone = assay: Serum stress hormone (corticosterone) ELISA in CRS model; conditions: CRS+BA group, 14 days
Experimental: In order to confirm the antidepressant efficacy of bornyl acetate on the animal model of stress depression, an animal model of depression induced by chronic restrained stress (CRS) was prepared. Specifically, the animal model, 8-week-old male C57BL/6NTac mice after birth (Narabiotechnology, Korea; weight 22-24 g) had been stabilized for 1 week. A 50 ml conical tube (SPL Life sciences, Pocheon, Korea) was punched to make a hole, thereby making a restraint frame. The mice were put in the frame and restrained for 2 hours every day for 14 days. After restraint, the mice were allowed to freely ingest water and food in the home cage. Bornyl acetate (25, 50 and 100 mg/kg) was orally administered 1 hour before inducing restrained stress every day. 14 days later, the mice were anesthetized, and the blood was collected. The blood was centrifuged at 5,000 rpm for 15 minutes to separate serum. In order to confirm the level of corticosterone, a stress hormone, in serum, an enzyme-linked immunosorbent assay (ELISA) kit (Enzo life sciences, Farmingdale, NY, USA) was used for analysis.

COX-2 protein = assay: Western blot of COX-2 protein in brain (hippocampus and amygdala) of CRS model; conditions: CRS+BA group
Experimental: In order to confirm the antidepressant efficacy of bornyl acetate on the animal model of stress depression, an animal model of depression induced by chronic restrained stress (CRS) was prepared. Specifically, the animal model, 8-week-old male C57BL/6NTac mice after birth (Narabiotechnology, Korea; weight 22-24 g) had been stabilized for 1 week. A 50 ml conical tube (SPL Life sciences, Pocheon, Korea) was punched to make a hole, thereby making a restraint frame. The mice were put in the frame and restrained for 2 hours every day for 14 days. After restraint, the mice were allowed to freely ingest water and food in the home cage. The hippocampus and amygdala of the brain were excised. They were added to 200 μl of a protein lysis buffer (10 mM Tris, 0.5 mM EDTA, 0.25 M sucrose), and proteins were isolated using a grinder. The isolated protein was quantified by the Bradford method (Bio-rad, USA) using bovine serum albumin (BSA, Sigma, USA), and then 25 μg of the protein was separated by 10% sodium dodecyl sulfate-polyacrylamide gel electrophoresis (SDS-PAGE) and transferred to polyvinylidene difluoride (PVDF) membrane (Gendepot, UK). PVDF membranes were blocked in 5% skimmed milk (BD, USA) for 1 hour. […] Identification and quantitative analysis of proteins were analyzed using an imaging device ChemiDoc XRS+ (Bio-Rad). […]

CC(=O)OC1CC2CCC1(C)C2(C)C (centres unmarked) [BA, bornyl acetate]
time of immobility, forced swimming test [1]: 85.2 s | level of stress hormone (corticosterone) in serum (corticosterone; 50 mg/kg oral): 2869.8 pg/mL | level of stress hormone (corticosterone) in serum (corticosterone; 100 mg/kg oral): 2202.5 pg/mL | protein expression of COX-2 (CRS-induced increase) (COX-2 protein; amygdala): significantly inhibited | protein expression of COX-2 (CRS-induced increase) (COX-2 protein; hippocampus): significantly inhibited
